These results are taken from ChEMBL document CHEMBL1137409, “Discovery of phenyl acetic acid substituted quinolines as novel liver X receptor agonists for the treatment of atherosclerosis” (J Med Chem, 2006).

The target of series [1] is T1, Oxysterols receptor LXR-alpha (Homo sapiens, UniProt Q13133).
T1 sequence (Q13133 whole entry): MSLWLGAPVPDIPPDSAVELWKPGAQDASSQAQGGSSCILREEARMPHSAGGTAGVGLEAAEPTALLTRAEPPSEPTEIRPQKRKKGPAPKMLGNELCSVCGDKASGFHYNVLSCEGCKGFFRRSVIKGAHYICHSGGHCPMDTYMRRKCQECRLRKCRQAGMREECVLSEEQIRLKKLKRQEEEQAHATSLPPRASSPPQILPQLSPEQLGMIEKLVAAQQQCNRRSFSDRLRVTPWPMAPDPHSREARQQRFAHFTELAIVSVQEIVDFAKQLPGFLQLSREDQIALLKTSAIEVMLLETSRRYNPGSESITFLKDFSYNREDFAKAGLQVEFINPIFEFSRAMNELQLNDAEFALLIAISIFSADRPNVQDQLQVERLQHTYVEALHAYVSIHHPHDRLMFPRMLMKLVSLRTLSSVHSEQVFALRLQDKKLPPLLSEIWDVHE

Series [2] deals with T2, Oxysterols receptor LXR-beta (Homo sapiens, UniProt P55055).
T2 sequence (P55055 whole entry): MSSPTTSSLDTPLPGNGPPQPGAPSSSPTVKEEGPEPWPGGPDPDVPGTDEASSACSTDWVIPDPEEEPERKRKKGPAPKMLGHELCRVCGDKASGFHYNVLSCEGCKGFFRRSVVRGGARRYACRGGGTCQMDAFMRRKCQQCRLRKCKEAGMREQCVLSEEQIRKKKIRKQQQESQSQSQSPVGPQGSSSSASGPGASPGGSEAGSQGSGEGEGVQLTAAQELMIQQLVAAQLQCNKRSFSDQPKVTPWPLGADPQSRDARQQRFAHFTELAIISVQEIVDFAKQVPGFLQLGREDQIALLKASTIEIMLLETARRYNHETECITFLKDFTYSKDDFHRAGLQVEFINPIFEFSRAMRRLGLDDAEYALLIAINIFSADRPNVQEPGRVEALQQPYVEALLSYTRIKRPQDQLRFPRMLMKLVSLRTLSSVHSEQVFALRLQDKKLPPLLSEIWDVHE

For series [3], the target named is T2, Oxysterols receptor LXR-beta. The source holds these as a separate data set.
Series [4] deals with THP-1. The experiment in a line: Induction of ABCA1 expression in THP1 cell line. Type of series: functional, cell-based. Particulars: Homo sapiens.
Series [5] is described as follows: Half life in human liver microsomes. Type of series: ADME, Microsome.
In series [6] the target is T3, Peroxisome proliferator-activated receptor delta (Homo sapiens, UniProt Q03181).
T3 sequence (Q03181 whole entry): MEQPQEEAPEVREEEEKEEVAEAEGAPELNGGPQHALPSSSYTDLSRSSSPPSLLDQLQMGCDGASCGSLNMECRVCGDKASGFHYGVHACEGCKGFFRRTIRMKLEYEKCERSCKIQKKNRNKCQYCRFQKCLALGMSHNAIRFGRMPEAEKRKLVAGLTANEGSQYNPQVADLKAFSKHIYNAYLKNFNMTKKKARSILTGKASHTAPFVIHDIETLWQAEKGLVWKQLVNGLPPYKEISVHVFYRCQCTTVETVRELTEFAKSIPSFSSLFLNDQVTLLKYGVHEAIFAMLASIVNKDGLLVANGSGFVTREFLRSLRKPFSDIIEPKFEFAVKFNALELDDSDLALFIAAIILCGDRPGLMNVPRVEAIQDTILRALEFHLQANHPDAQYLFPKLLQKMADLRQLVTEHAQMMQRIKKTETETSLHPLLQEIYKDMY
The experiment in a line: Agonist activity at human PPAR delta by GAL4 transactivation assay. It is filed as functional.

In series [7] the test system is Huh-7. The experiment in a line: Induction of SREBP1c expression in Huh7 cell line. Type of series: functional, cell-based. Conditions: Homo sapiens.
Series [8] deals with Huh-7. In words: Induction of SREBP1c expression in Huh7 cell line relative to TO901317. Type of series: functional, Homo sapiens.
Series [9] deals with THP-1. In words: Induction of ABCA1 expression in THP1 cell line relative to TO901317. Type of series: functional, Homo sapiens.
The target of series [10] is T4, Peroxisome proliferator-activated receptor alpha (Homo sapiens, UniProt Q07869).
T4 sequence (Q07869 whole entry): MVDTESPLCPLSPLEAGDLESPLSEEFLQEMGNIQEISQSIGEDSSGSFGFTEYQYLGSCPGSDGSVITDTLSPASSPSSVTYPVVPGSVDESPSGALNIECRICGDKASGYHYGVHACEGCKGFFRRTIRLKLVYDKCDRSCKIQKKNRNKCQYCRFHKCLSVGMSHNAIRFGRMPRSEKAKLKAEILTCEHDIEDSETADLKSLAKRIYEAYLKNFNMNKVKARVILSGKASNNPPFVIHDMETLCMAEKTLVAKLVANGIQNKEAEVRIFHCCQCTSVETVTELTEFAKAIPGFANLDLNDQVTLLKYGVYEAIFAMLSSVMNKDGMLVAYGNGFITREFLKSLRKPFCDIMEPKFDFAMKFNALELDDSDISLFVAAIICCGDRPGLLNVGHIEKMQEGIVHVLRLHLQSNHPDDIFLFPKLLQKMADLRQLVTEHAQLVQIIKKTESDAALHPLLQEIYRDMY
The experiment in a line: Agonist activity at human PPAR alpha by GAL4 transactivation assay. It is filed as functional.

Series [11] has as its target T5, Peroxisome proliferator-activated receptor gamma (Homo sapiens, UniProt P37231).
T5 sequence (P37231 whole entry): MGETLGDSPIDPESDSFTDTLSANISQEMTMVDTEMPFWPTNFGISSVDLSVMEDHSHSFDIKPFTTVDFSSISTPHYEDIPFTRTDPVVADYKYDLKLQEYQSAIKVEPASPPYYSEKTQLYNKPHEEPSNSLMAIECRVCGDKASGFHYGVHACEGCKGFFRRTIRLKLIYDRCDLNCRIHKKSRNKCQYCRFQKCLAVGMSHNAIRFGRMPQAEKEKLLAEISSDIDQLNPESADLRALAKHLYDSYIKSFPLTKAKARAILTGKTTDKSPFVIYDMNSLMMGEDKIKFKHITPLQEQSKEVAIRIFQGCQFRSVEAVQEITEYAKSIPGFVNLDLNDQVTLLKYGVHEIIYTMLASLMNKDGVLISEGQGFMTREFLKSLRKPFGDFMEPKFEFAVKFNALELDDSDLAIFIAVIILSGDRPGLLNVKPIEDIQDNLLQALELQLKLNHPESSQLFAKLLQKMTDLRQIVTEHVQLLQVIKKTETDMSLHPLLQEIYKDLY

A further series has as its system Mus musculus. The experiment in a line: Reduction of atherosclerotic lesion of thoracic aorta in LDLr knockout C57BL/6 mouse at 10 mg/kg/day, po after 8 weeks relative to control. Type of series: functional. The arrangement: scale not given: the % may be the effect or the level left.
Series [12] in a line: Half life in human liver microsomes at 20 uM. It is filed as ADME, Microsome.
Series [13] is described as follows: Terminal half life in C57 mouse at 10 mg/kg, po. The arrangement: dose 10 mg/kg, route oral. Particulars: in vivo, read-out: beta t1/2 (converted). It is filed as ADME, organism-based.
The target in series [14] is T1, Oxysterols receptor LXR-alpha. In words: Agonist activity at human LXR alpha expressed in Huh7 cells by GAL4 transactivation assay. Type of series: functional, cell-based, Huh-7.
Series [15] is described as follows: Cmax in C57 mouse at 10 mg/kg, po. Particulars: in vivo. The arrangement: dose 10 mg/kg, route oral. It is filed as ADME, organism-based.
Series [16] deals with T2, Oxysterols receptor LXR-beta. The experiment in a line: Agonist activity at human LXR beta expressed in Huh7 cells by GAL4 transactivation assay. Type of series: functional, cell-based, Huh-7.
A short description of series [17]: AUC (0-infinity) in C57 mouse at 10 mg/kg, po. It is filed as ADME, organism-based. Also on record: time infinity, dose 10 mg/kg, route oral. Conditions: plasma.
Series [18] concerns THP-1. In words: Stimulation of cholesterol efflux in THP1 cell line. Type of series: functional, cell-based. Conditions: Homo sapiens.
Series [19] is described as follows: Tmax in C57 mouse at 10 mg/kg, po. Also on record: dose 10 mg/kg, route oral. Particulars: in vivo. Type of series: ADME, organism-based.
Series [20] can be described thus: Bioavailability in C57 mouse at 10 mg/kg, po. Conditions: in vivo. Type of series: ADME, organism-based.

Turning to `COC(=O)c1ccc(COc2cccc(-c3c(C(=O)c4ccccc4)cnc4c(C(F)(F)F)cccc34)c2)cc1`, the IC50 in series [1] and in series [3] was greater than 1000 nM in each case. Besides, the EC50 in [2] was found to be 296 nM.
Take `O=C(O)Cc1ccc(COc2cccc(-c3c(Cc4ccccc4)cnc4c(C(F)(F)F)cccc34)c2)cc1`: the EC50 is 55 nM with THP-1 [4]; 627 nM in [6]; 45 nM in the series with Huh-7 [7]; 1310 nM in [10]; 680 nM in series [11]. In [5], this compound returned a half-life of 107 min. Further, the results for the Efficacy in the series on Huh-7 [8] and with THP-1 [9] were 106% and 172%, respectively.
`O=C(O)Cc1cccc(OCCCN(Cc2cccc(C(F)(F)F)c2Cl)CC(c2ccccc2)c2ccccc2)c1`: the figures for the IC50 in series [1] and in series [3] were 100 nM and 12 nM, respectively. The compound also came in with an EC50 in series [2] of 410 nM. For the same compound, in the series with Mus musculus, the Activity amounted to 27%.
As for `O=C(O)Cc1ccc(COc2cccc(-c3c(C(=O)c4ccccc4)cnc4c(C(F)(F)F)cccc34)c2)cc1`, the half-life at 20 µM in [12] was determined as 3.5 min.
`O=C(O)Cc1ccc(CNc2cccc(-c3c(Cc4ccccc4)cnc4c(C(F)(F)F)cccc34)c2)cc1`: in series [1], the IC50 was found to be 7.6 nM. Besides, the EC50 was 33 nM with THP-1 [4]; 160 nM in series [14]; 1320 nM in [6]; 15 nM with Huh-7 [7]; 87 nM in series [16]; 37 nM in the series on THP-1 [18]. The EC50 turned out to be 33 nM in series [2], 1300 nM in [10] and 320 nM in series [11]. Besides, the half-life in series [13] was 78 min. The same compound came in with a Cmax in [15] of 3740 ng/mL. In series [17], the AUC(0-inf) was 4440 ng·h/mL. For the same compound, in series [19], the Tmax came to 30 min. Further, the Efficacy is recorded as 73% in the series with Huh-7 [8] and 151% with THP-1 [9]. In the series with Mus musculus, the Activity stood at 45%. Besides, the bioavailability in [20] is 67%.

As usually defined, the IC50 is the concentration that gives 50% inhibition. As usually defined, the EC50 is the concentration giving half of the maximal effect. As a reminder, the Cmax is the peak of the concentration-time curve. What is called AUC(0-inf) is total exposure, with the tail of the curve extrapolated. As a reminder, the Tmax is the time from dosing to the highest level. For orientation: bioavailability means dose-corrected exposure relative to a reference, in per cent.
